This is an account of results in PMC7039006 (2020).

Test [1] concerns 5'-AGCA overhang on iM7 (DNA, i motif) AGCACCCCTTTCCC
As to the kind of experiment: fluorescence enhancement. Particulars: 2 mM MgCl2; TAE pH 5; 1 μM DNA, 3 μM THIA.

Test [2] deals with 5'-AGAA overhang on iM7 (DNA, i motif) AGAACCCCTTTCCC
The test is described as follows: fluorescence enhancement. The following applies: 2 mM MgCl2; TAE pH 5; 1 μM DNA, 3 μM DSMB.

Test [3] relates to TiM7 (5'-TGGA-C4T3C3) (DNA, i motif) TGGACCCCTTTCCC
The test is described as follows: CD melting at 290 nm. The following applies: 2 mM MgCl2; TAE pH 5; 50 μM DNA, 150 μM ThT.

In test [4] the test system is 3'-GGGA on C3T3C4 (DNA, i motif) CCCTTTCCCCGGGA
As to the kind of experiment: fluorescence enhancement. The following applies: 2 mM MgCl2; TAE pH 5, 22°C; 1 μM DNA, 3 μM ThT.

The test system of test [5] is 5'-AGGA overhang on iM7 (DNA, i motif) AGGACCCCTTTCCC
As to the kind of experiment: fluorescence enhancement. Particulars: 2 mM MgCl2; TAE pH 5, 22°C; 1 μM DNA, 3 μM ThT.

Test [6] has as its system TiM9 (TGGAC5T3C4) (DNA, i motif) TGGACCCCCTTTCCCC
The test is described as follows: fluorescence titration. Particulars: 2 mM MgCl2; TAE pH 5, 22°C; 3 μM ThT titrated with DNA.

The subject of test [7] is 3'-GGGA on C4T3C5 (DNA, i motif) CCCCTTTCCCCCGGGA
The test is described as follows: fluorescence enhancement. Particulars: 2 mM MgCl2; TAE pH 5, 22°C; 1 μM DNA, 3 μM ThT.

Test [8] concerns 5'-AGGA overhang on iM9 (DNA, i motif) AGGACCCCCTTTCCCC
The test is described as follows: fluorescence enhancement. Particulars: 2 mM MgCl2; TAE pH 5, 22°C; 1 μM DNA, 3 μM ThT.

For test [9], the system named is 5'-GGA overhang on iM9 (DNA, i motif) GGACCCCCTTTCCCC
As to the kind of experiment: fluorescence enhancement. Particulars: 2 mM MgCl2; TAE pH 5, 22°C; 1 μM DNA, 3 μM ThT.

Test [10] relates to TiM7 (5'-TGGA-C4T3C3) (DNA, i motif) TGGACCCCTTTCCC
As to the kind of experiment: fluorescence titration. Particulars: 2 mM MgCl2; TAE pH 5, 22°C; 3 μM ThT titrated with DNA.

The subject of test [11] is iM9 (C5T3C4) (DNA, i motif) CCCCCTTTCCCC
As to the kind of experiment: CD melting at 290 nm. The following applies: 2 mM MgCl2; TAE pH 5; 50 μM DNA, 150 μM ThT; Tm stated unchanged.

Test [12] concerns TiM9 (TGGAC5T3C4) (DNA, i motif) TGGACCCCCTTTCCCC
As to the kind of experiment: CD melting at 290 nm. The following applies: 2 mM MgCl2; TAE pH 5; 50 μM DNA, 150 μM ThT.

The test system of test [13] is 5'-GGA overhang on iM7 (DNA, i motif) GGACCCCTTTCCC
The test is described as follows: fluorescence enhancement. The following applies: 2 mM MgCl2; TAE pH 5, 22°C; 1 μM DNA, 3 μM ThT.

Test [14] has as its system FNA-TiM9 (Th46/Th58 tetrahedron heterodimer tethered with TiM9) (DNA, other) TTCAGACGGAATGTGCTTCCCAAGTGTCGTTTGTATTGGCTCGCAT/TCAACTGGGTGATAAAACGACACTTGGGAATCTACTATGGCTCTTC/TATCACCCAGTTGACAGTGTAGCATGTAATAGATGCGAGCCAATAC/ACATTCCGTCTGAAACATTACATGCTACACGAGAAGAGCCATAGTATTTTTTTTATAAATAATTGGACCCCCTTTCCCC/TTCAGACTTAGGAATGTTGCTTCCCACGTAGTGTCGTGTTGGTATTGGACCCTCGCAT/TCAACTGCCTGGTGATAAAACACGACACTACGTGGGAATCTTACTATGGCGGCTCTTC/TTATCACCAGGCAGTTGACAGGTGTAGCAAGCTGTAATAGATGCGAGGGTCCAATACC/AACATTCCTAAGTCTGAAACATTACAGCTTGCTACACCGAGAAGAGCCGCCATAGTAATTTTTTAATATTTATAATGGACCCCCTTTCCCC
As to the kind of experiment: fluorescence enhancement. Particulars: 2 mM MgCl2; TAE pH 5; 0.4 μM FNA, 0.4 μM ThT; over 20-fold fluorescence increase versus pH 8.

For test [15], the system named is iM7 (C4T3C3) (DNA, i motif) CCCCTTTCCC
As to the kind of experiment: CD melting at 290 nm. Particulars: 2 mM MgCl2; TAE pH 5; 50 μM DNA, 150 μM ThT; Tm stated unchanged.

For `CCN1/C(=C/c2sc3ccccc3[n+]2CC)Sc2ccccc21`, the binding result in test [1] is listed as “yes”.
With `CN(C)c1ccc(/C=C/c2sc3ccccc3[n+]2C)cc1`, the binding result in [2] was “yes”.
`Cc1ccc2c(c1)sc(-c1ccc(N(C)C)cc1)[n+]2C`: the binding result in test [3] was “yes”; in test [4], “yes”; in test [5], “yes”; in test [7], “yes”; in test [8] it was “yes”; in test [9], “weak”. Moreover, the binding result in test [11] is recorded as “weak”; in test [12], “yes”; in test [13], “weak”; in [14], “yes”; in test [15], “weak”. In addition, the Kd in [6] was ~ 5.7 μM; in test [10], ~ 3.9 μM.
